Test results reported in article PMC5762309 (Oncotarget, 2017).
Several values for one entry are separate records, joined by “and”; a condition that tells them apart may be missing. Equal entries are not always repeated.

Experiments:
[1] = target: T1, BMPR2 (Homo sapiens, UniProt Q13873); experiment: KINOMEScan; assay type: binding; parameters: dose or concentration left out as unconfirmed
T1 construct: purchased DiscoverX KINOMEscan

[2] = system: BaF3-tel-KIT-N822K; experiment: Anti-proliferation assay, transformed BaF3 cells; assay type: cell-based; conditions: Mus musculus, 72 hours, CellTiter-Glo
Excerpt: (§1) Retroviral constructs for BaF3-KIT mutants were made based on the pMSCVpuro (Clontech) backbone. For TEL-KIT vector, the first 1 kb of human TEL gene with an artificial myristoylation sequence ([…]) was cloned into the pMSCVpuro retroviral vector, followed by a 3xFLAG tag sequence. Then, the kinase domain coding sequence of KIT was inserted in-frame between TEL and 3xFLAG sequences. For full-length expression vectors, the coding sequences of KIT variants were directly cloned in pMSCVpuro vector with a 3xFLAG tag at the C-terminal end. All mutagenesis was performed using the QuikChange Site-Directed Mutagenesis Kit (Stratagene) following the manufacturer’s instructions. Retrovirus was packaged in HEK293T cells by transfecting KIT-containing MSCV vectors together with two helper plasmids. Virus supernatants were harvested 48 h after transfection and filtered before infection. Then BaF3 cells were infected with harvested virus supernatants using spinoculation protocol, and stable cell lines were obtained by puromycin selection for 48 h. The IL-3 concentrations in the culture medium were gradually withdrawn until cells were able to grow in the absence of IL-3.
(§2) Cells were grown in 96-well culture plates (2500/well). The compounds of various concentrations were added into the plates. Cell proliferation was determined after treatment with compounds for 72 hours. Cell viability was measured using the CellTiter–Glo assay (Promega, USA), according to the manufacturer’s instructions, and luminescence was measured in a multi-label reader (Envision, PerkinElmer, USA). Data were normalized to control groups (DMSO) and represented by the mean of three independent measurements with standard error <20%. GI50 values were calculated using Prism 5.0 (GraphPad Software, San Diego, CA).

[3] = system: BaF3-tel-KIT; experiment: Anti-proliferation assay, transformed BaF3 cells; assay type: cell-based; conditions: Mus musculus, 72 hours, CellTiter-Glo
Excerpt: as §1, §2

[4] = system: BaF3-tel-KIT-A829P; experiment: Anti-proliferation assay, transformed BaF3 cells; assay type: cell-based; conditions: Mus musculus, 72 hours, CellTiter-Glo
Excerpt: as §1, §2

[5] = system: BaF3-tel-KIT-L576P; experiment: Anti-proliferation assay, transformed BaF3 cells; assay type: cell-based; conditions: Mus musculus, 72 hours, CellTiter-Glo
Excerpt: as §1, §2

[6] = system: BaF3-tel-KIT-D816V; experiment: Anti-proliferation assay, transformed BaF3 cells; assay type: cell-based; conditions: Mus musculus, 72 hours, CellTiter-Glo
Excerpt: as §1, §2

[7] = system: BaF3-tel-KIT-T670I-V559D; experiment: Anti-proliferation assay, transformed BaF3 cells; assay type: cell-based; conditions: Mus musculus, 72 hours, CellTiter-Glo
Excerpt: as §1, §2

[8] = system: BaF3-tel-KIT-V654A; experiment: Anti-proliferation assay, transformed BaF3 cells; assay type: cell-based; conditions: Mus musculus, 72 hours, CellTiter-Glo
Excerpt: as §1, §2

[9] = system: BaF3-tel-KIT-V559D-V654A; experiment: Anti-proliferation assay, transformed BaF3 cells; assay type: cell-based; conditions: Mus musculus, 72 hours, CellTiter-Glo
Excerpt: as §1, §2

[10] = system: BaF3-tel-KIT-V559D; experiment: Anti-proliferation assay, transformed BaF3 cells; assay type: cell-based; conditions: Mus musculus, 72 hours, CellTiter-Glo
Excerpt: as §1, §2

[11] = system: BaF3-tel-KIT-T670I; experiment: Anti-proliferation assay, transformed BaF3 cells; assay type: cell-based; conditions: Mus musculus, 72 hours, CellTiter-Glo
Excerpt: as §1, §2

[12] = system: CSF1R transformed BaF3 cells; experiment: Anti-proliferation assay, transformed BaF3 cells; assay type: cell-based; conditions: Mus musculus
Protocol: (§3) Then we used the DiscoverX’s KINOMEScan platform to further examine CHMFL-KIT-031’s kinome-wide selectivity profile. […] Besides the strong binding to V559D, it also bound strongly to KIT wt, L576P and A829P.
as §2

[13] = target: T2, ULK1 (Homo sapiens, UniProt O75385); experiment: KINOMEScan; assay type: binding; parameters: dose or concentration left out as unconfirmed
T2 construct: purchased DiscoverX KINOMEscan

[14] = target: T3, MET (Homo sapiens, UniProt P08581); experiment: KINOMEScan; assay type: binding; parameters: dose or concentration left out as unconfirmed
T3 construct: purchased DiscoverX KINOMEscan
T3 sequence (P08581 25-1390): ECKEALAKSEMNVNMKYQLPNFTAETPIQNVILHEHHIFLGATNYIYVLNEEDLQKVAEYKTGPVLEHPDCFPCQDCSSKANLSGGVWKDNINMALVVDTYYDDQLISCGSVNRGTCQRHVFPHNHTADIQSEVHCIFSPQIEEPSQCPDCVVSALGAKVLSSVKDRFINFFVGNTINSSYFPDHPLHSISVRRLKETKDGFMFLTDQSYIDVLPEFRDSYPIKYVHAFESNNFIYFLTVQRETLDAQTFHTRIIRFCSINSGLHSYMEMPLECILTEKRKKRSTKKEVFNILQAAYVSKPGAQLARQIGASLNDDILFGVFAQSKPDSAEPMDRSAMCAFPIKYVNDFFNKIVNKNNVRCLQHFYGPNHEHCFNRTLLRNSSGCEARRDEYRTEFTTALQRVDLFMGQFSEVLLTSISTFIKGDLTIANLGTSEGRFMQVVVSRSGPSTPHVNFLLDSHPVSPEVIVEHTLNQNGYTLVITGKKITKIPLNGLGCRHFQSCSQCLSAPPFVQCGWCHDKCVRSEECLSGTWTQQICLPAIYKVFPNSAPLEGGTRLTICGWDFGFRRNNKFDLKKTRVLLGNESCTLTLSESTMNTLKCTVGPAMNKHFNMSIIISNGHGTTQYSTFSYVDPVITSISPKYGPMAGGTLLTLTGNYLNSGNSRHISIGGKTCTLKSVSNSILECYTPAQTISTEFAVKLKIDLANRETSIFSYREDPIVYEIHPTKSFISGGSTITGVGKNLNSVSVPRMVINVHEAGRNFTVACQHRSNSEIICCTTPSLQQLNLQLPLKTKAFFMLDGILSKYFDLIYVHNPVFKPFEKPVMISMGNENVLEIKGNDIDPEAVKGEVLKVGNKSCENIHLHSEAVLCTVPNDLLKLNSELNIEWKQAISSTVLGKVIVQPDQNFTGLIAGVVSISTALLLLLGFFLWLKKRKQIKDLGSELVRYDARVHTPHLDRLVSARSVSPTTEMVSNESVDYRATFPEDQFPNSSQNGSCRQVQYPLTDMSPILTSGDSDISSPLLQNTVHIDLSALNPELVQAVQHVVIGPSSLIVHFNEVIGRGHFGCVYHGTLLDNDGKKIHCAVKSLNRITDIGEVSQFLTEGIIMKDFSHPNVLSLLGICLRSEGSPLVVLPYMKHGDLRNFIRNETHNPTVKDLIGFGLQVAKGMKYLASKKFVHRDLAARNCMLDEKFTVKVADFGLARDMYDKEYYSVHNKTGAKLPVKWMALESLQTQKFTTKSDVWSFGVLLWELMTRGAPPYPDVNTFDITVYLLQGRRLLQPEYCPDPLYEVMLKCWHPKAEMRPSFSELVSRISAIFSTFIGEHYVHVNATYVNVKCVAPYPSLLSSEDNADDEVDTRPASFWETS

[15] = target: T4, ITK (Homo sapiens, UniProt Q08881); experiment: KINOMEScan; assay type: binding; parameters: dose or concentration left out as unconfirmed
T4 construct: purchased DiscoverX KINOMEscan
T4 sequence (Q08881 whole entry): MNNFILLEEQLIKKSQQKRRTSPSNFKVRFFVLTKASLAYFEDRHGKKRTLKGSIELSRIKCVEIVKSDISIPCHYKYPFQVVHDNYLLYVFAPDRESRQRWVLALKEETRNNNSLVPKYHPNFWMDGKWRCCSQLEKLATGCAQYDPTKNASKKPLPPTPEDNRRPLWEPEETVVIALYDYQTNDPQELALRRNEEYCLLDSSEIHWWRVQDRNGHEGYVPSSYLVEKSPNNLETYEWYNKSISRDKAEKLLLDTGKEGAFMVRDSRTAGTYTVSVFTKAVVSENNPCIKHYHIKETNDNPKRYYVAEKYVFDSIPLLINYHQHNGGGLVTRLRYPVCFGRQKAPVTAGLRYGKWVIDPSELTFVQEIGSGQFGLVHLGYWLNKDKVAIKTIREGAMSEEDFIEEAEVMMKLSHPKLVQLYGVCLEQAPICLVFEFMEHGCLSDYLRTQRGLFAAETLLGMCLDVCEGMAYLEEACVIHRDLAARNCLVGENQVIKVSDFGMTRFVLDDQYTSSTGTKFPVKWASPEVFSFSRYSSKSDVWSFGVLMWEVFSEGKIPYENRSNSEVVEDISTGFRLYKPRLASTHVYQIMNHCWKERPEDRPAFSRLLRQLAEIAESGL

[16] = target: T5, CIT (Homo sapiens, UniProt O14578); experiment: KINOMEScan; assay type: binding; parameters: dose or concentration left out as unconfirmed
T5 construct: purchased DiscoverX KINOMEscan

[17] = target: T6, PRKR (Homo sapiens, UniProt P19525); experiment: KINOMEScan; assay type: binding; parameters: dose or concentration left out as unconfirmed
T6 construct: purchased DiscoverX KINOMEscan

[18] = target: T7, CDK11 (Homo sapiens, UniProt Q9BWU1); experiment: KINOMEScan; assay type: binding; parameters: dose or concentration left out as unconfirmed
T7 construct: purchased DiscoverX KINOMEscan

[19] = target: T8, ULK3 (Homo sapiens, UniProt Q6PHR2); experiment: KINOMEScan; assay type: binding; parameters: dose or concentration left out as unconfirmed
T8 construct: purchased DiscoverX KINOMEscan
T8 sequence (Q6PHR2 whole entry): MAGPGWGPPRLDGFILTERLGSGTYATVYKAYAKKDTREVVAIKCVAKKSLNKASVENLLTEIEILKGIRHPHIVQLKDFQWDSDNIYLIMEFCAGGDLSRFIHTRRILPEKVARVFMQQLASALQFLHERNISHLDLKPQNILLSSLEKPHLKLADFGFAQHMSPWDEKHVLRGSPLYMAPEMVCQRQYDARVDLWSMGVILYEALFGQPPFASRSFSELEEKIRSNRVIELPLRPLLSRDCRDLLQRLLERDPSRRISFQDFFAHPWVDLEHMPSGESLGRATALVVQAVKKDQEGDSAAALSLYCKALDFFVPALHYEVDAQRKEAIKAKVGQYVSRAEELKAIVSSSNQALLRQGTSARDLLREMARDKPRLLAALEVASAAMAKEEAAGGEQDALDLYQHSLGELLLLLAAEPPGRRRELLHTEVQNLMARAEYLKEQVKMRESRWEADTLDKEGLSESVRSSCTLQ

[20] = target: KIT D816V (Homo sapiens, UniProt P10721, D816V); experiment: KIT auto-phosphorylation in transformed BaF3 cells; conditions: 2h
Chain of KIT D816V (P10721 26-976 D816V): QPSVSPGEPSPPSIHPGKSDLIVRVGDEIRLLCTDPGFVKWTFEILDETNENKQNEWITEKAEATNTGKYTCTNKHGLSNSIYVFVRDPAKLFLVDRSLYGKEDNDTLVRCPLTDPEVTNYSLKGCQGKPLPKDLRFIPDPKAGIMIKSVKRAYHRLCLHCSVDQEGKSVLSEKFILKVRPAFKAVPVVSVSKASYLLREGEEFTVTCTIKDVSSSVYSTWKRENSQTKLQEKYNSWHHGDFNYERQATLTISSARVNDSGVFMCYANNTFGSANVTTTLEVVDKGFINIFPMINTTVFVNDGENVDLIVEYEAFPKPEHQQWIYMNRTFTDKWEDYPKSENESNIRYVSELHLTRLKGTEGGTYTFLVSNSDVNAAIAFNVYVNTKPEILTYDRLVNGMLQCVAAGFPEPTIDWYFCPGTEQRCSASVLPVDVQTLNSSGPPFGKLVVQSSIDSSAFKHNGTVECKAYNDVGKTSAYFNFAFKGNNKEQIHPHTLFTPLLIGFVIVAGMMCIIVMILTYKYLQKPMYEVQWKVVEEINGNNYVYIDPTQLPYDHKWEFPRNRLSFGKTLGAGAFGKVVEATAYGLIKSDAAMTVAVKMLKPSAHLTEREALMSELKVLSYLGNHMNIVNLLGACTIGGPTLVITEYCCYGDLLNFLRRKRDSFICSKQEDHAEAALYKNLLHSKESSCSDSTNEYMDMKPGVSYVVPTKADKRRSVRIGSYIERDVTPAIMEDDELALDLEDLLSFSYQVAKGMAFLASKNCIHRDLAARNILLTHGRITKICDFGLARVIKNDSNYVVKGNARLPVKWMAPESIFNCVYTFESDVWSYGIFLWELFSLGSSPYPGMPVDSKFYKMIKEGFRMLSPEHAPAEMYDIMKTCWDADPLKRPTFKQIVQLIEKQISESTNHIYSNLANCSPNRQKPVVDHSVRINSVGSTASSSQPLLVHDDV

[21] = target: KIT V559D (Homo sapiens, UniProt P10721, V559D); experiment: ADP-Glo biochemical assay; parameters: Kit V559D encoding residues 545-976 with His tag; His tag; made in house; host or cells: SF9 insect cells (baculovirus)
Chain of KIT V559D (P10721 545-976 V559D): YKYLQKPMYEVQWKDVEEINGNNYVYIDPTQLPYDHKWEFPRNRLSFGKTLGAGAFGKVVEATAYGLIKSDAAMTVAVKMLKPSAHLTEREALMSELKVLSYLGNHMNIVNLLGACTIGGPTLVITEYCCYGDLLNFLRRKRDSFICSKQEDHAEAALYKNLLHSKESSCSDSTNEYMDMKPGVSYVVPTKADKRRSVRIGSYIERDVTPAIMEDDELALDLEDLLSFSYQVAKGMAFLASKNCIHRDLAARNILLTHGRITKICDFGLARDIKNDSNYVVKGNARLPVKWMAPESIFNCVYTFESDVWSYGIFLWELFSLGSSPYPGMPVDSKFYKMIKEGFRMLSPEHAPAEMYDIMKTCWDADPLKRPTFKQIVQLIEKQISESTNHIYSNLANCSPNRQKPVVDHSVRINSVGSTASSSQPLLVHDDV

[22] = target: T9, CAMK1B (Homo sapiens, UniProt Q6P2M8); experiment: KINOMEScan; assay type: binding; parameters: dose or concentration left out as unconfirmed
T9 construct: purchased DiscoverX KINOMEscan

[23] = target: T10, EPHB2 (Homo sapiens, UniProt P29323); experiment: KINOMEScan; assay type: binding; parameters: dose or concentration left out as unconfirmed
T10 construct: purchased DiscoverX KINOMEscan

[24] = target: T11, CDC2L5 (Homo sapiens, UniProt Q14004); experiment: KINOMEScan; assay type: binding; conditions: Concentrations 1 µM
T11 construct: purchased DiscoverX KINOMEscan
Excerpt: as §3

[25] = target: T12, EGFR(L858R,T790M) (Homo sapiens, UniProt P00533, L858R/T790M); experiment: KINOMEScan; assay type: binding
T12 construct: purchased DiscoverX KINOMEscan
T12 sequence (P00533 25-1210 T790M/L858R): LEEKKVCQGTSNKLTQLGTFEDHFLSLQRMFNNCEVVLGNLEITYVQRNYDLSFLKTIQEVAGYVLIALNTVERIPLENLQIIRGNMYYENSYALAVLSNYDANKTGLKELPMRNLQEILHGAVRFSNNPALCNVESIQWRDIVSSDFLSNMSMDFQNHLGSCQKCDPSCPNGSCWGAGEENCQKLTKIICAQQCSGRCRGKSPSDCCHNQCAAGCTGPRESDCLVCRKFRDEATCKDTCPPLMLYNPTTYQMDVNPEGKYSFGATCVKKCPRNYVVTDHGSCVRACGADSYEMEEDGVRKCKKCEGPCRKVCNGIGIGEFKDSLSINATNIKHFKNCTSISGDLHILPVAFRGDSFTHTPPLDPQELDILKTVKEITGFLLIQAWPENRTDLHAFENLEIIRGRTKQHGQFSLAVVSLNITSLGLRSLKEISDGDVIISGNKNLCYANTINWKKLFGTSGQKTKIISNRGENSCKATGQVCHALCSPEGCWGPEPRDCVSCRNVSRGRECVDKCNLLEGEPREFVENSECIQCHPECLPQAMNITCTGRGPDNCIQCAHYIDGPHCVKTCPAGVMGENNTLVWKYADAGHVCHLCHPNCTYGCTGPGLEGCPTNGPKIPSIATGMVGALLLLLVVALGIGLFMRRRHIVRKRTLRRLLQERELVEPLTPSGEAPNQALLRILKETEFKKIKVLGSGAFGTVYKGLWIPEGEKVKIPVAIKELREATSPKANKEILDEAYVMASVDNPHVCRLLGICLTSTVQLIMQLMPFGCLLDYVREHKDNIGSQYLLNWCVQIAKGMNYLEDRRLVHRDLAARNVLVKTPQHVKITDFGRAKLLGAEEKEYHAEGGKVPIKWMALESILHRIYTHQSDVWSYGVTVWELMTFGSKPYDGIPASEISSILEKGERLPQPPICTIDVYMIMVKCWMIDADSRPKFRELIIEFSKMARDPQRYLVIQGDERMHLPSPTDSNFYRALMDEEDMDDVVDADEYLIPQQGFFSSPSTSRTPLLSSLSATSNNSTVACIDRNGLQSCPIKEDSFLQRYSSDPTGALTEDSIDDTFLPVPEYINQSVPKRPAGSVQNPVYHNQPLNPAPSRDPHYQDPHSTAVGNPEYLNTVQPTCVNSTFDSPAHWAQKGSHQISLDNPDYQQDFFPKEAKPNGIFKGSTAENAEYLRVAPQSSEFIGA

[26] = target: T13, LZK (Homo sapiens, UniProt O43283); experiment: KINOMEScan; assay type: binding; parameters: dose or concentration left out as unconfirmed
T13 construct: purchased DiscoverX KINOMEscan

`COc1cc(C(=O)NCC(=O)Nc2ccc3c(/C=C/c4ccccn4)n[nH]c3c2)cc(OC)c1OC` [CHMFL-KIT-031] gave a KINOMEScan profiling value [1] of 100, a GI50 [2] greater than 10 µM and a GI50 [3] greater than 10 µM. For the same compound, the GI50 [4] was 1.8 µM, the GI50 [5] was 2.2 µM and the GI50 [6] was greater than 10 µM. For the same compound, the GI50 [7] was greater than 10 µM, the GI50 [8] was 0.4 µM and the GI50 [9] was 0.81 µM. The GI50 [10] was 0.025 µM, the GI50 [11] was greater than 10 µM and the GI50 [12] was 2.4 µM. For the same compound, the KINOMEScan profiling value [13] was 92, the KINOMEScan profiling value [14] was 100 and the KINOMEScan profiling value [15] was 96. It also gave a KINOMEScan profiling value [16] of 64, a KINOMEScan profiling value [17] of 97 and a KINOMEScan profiling value [18] of 59. The KINOMEScan profiling value [19] was 89, the EC50 ([20]; EC50 pY703 auto-phosphorylation) was greater than 10 µM and the EC50 ([20]; EC50 pY719 auto-phosphorylation) was greater than 10 µM. For the same compound, the EC50 ([20]; EC50 pY823 auto-phosphorylation) was 4.59 µM, the “selectivity over KIT wt (IC50)” value ([21]; ADP-Glo, KIT V559D vs KIT wt) was “about 6 fold” and the IC50 ([21]; purified kinase protein, ADP-Glo, 100 μM ATP) was 0.0282 µM and 0.028 µM. The “selectivity over KIT wt” value ([21]; summary statement) was 10 fold, the KINOMEScan profiling value [22] was 83 and the KINOMEScan profiling value [23] was 87. The KINOMEScan profiling value [24] was 97, the KINOMEScan profiling value [25] was 75 and the KINOMEScan profiling value [26] was 100.
